The results in this text go back to patent US20250154170A1, “FUSED PYRIMIDINES AS KRAS INHIBITORS” (priority 2022, published 2025).

One experiment has as its target K-Ras G12D (Homo sapiens, UniProt P01116, G12D). Description: K-Ras G12D activation by SOS1 (KRAS G12D activation by SOS1cat assay, HTRF). Type of experiment: biochemical. The settings on record: mean, SOS1cat mediated loading of GST-KRAS G12D-GDP with fluorescent GTP analogue, read-out: K-Ras G12D activation by SOS1 IC50 - [mol/l] (mean). As for the experimental part:
(§1) Preparation of test compound dilutions. A 100-fold concentrated solution of the test compound (50 nL) in DMSO was transferred to microtiter test plates (384 or 1,536 wells, Greiner Bio-One, Germany) using either a Hummingbird liquid handler (Digilab, MA, USA) or an Echo acoustic system (Labcyte, CA, USA). Plates were sealed with adhesive foil or heat-sealed and stored at −20 C until use. Serial dilutions of test compounds were prepared in 100% DMSO using a Precision Pipetting System (BioTek, USA).
(§2) Measurement and evaluation of inhibition data, calculation of IC50 values. Homogeneous time-resolved fluorescence (HTRF) was measured with a PHERAstar reader (BMG, Germany) using the HTRF module (excitation: 337 nm; emission 1: 620 nm, emission 2: 665 nm). The ratio of the emissions at 665 and 620 nm was used as the specific signal for further evaluation. The data were normalized using the controls: DMSO=0% inhibition, inhibition control wells with inhibitor control solution=100% inhibition. Compounds were tested in duplicates at up to 11 concentrations (e.g. 20 μM, 5.7 μM, 1.6 μM, 0.47 μM, 0.13 μM, 38 nM, 11 nM, 3.1 nM, 0.89 nM, 0.25 nM and 0.073 nM). IC50 values were calculated using a four-parameter fit, with a commercial software package (Genedata Screener, Switzerland).
(§3) KRAS^G12C activation by SOS1^cat assay (“On-assay”). This assay quantifies SOS1^cat mediated loading of KRAS^G12C-GDP with a fluorescent GTP analogue. Detection of successful loading was achieved by measuring resonance energy transfer from anti-GST-terbium (FRET donor) bound to GST-KRAS^G12C to the loaded fluorescent GTP analogue (FRET acceptor). The fluorescent GTP analogue EDA-GTP-DY-647P1 [2′/3′-O-(2-aminoethyl-carbamoyl)guanosine-5′-triphosphate labelled with DY-647P1 (Dyomics GmbH, Germany)] was synthesized by Jena Bioscience (Germany) and supplied as a 1 mM aqueous solution. A KRAS^G12C working solution was prepared in assay buffer [10 mM HEPES pH 7.4 (AppliChem), 150 mM NaCl (Sigma), 5 mM MgCl2 (Sigma), 1 mM DTT (Thermo Fisher), 0.05% BSA Fraction V pH 7.0 (ICN Biomedicals), 0.0025% (v/v) Igepal (Sigma)] containing GST-KRAS^G12C (final concentration in assay 50 nM) and anti-GST-terbium (Cisbio, France) (final concentration in assay 1 nM). A SOS1^cat working solution was prepared in assay buffer containing SOS1^cat (final concentration 10 nM) and EDA-GTP-DY-647P1 (final concentration 100 nM). An inhibitor control solution was prepared in assay buffer containing EDA-GTP-DY-647P1 (final concentration 100 nM) without SOS1^cat. All steps of the assay were performed at 20° C. A volume of 3 μL of the KRAS^G12C working solution was added to all wells of the test plate using a Multidrop dispenser (Thermo LabSystems). After 15 min, 2 μL of the SOS1^ct working solution was added to all wells, except for the inhibitor control solution wells. After 30 min incubation, HTRF was measured.
(§4) G12D and Wild-type KRAS activation by SOS1cat assays. These assays quantify human SOS1^cat mediated loading of wild-type GST-KRAS^WT-GDP or GST-KRAS^G12D-GDP with a fluorescent GTP analogue. The assay was performed similarly to the KRAS^G12C activation by SOS1^cat assay with the following differences: final concentration of SOS1^cat of 60 nM and final incubation time before measurement of 10 min for KRAS^G12D assay, final concentration of SOS1^cat of 20 nM and final incubation time before measurement of 15 min for wild-type KRAS assay, respectively. GST-KRAS^G12C was replaced by GST-KRAS^WT or GST-KRAS^G12D, respectively, also at 50 nM final concentration.
KRAS^G12D activation by SOS1^cat assay (“On-assay”). This assay quantifies SOS1^cat mediated loading of KRAS^G12D-GDP with a fluorescent GTP analogue. Detection of successful loading was achieved by measuring resonance energy transfer from anti-GST-terbium (FRET donor) bound to GST-KRAS^G12D to the loaded fluorescent GTP analogue (FRET acceptor).
(In TR-FRET formats the signal depends on donor and acceptor labels being close together.)

The target of the next experiment is K-Ras-wildtype (Homo sapiens, UniProt P01116). Description: K-Ras-wildtype activation by SOS1 (wild-type KRAS activation by SOS1cat assay, HTRF). Type of experiment: biochemical. The settings on record: mean, SOS1cat mediated loading of wild-type GST-KRAS-GDP with fluorescent GTP analogue, read-out: K-Ras-wildtype activation by SOS1 IC50 - [mol/l] (mean). Here is the method:
as §1, §2, §3, §4
Wild-type KRAS activation by SOS1^cat assay. This assay quantifies human SOS1^cat mediated loading of wild-type GST-KRAS-GDP with a fluorescent GTP analogue. The assay was performed similarly to the KRAS^G12D activation by SOS1^cat assay just by replacement of GST-KRAS^G12D by wild-type GST-KRAS while concentrations of all components and incubation times were the same.

Chain of K-Ras-wildtype (P01116 1-188 isoform P01116-2): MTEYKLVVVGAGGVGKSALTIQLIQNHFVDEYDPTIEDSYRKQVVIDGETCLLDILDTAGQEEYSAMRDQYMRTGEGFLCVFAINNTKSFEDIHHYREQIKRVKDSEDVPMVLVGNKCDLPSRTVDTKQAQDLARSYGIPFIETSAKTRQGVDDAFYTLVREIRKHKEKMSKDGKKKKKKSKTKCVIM
Chain of K-Ras G12D (P01116 1-188 isoform P01116-2 G12D): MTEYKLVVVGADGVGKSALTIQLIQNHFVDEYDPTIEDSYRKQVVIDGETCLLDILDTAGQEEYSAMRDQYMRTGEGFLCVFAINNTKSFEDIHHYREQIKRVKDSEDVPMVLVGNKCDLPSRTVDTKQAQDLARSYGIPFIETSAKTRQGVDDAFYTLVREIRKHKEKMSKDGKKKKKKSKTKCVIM

On to `Oc1cc(Nc2nc3c(N4CC5CCC(C4)N5)nc(OCC45CCCN4CCC5)nc3s2)c2ccccc2c1` [Example 7, 4-({7-(3,8-diazabicyclo[3.2.1]octan-3-yl)-5-[(tetrahydro-1H-pyrrolizin-7a(5H)-yl)methoxy][1,3]thiazolo[5,4-d]pyrimidin-2-yl}amino)naphthalen-2-ol], for which the IC50 at K-Ras G12D was 3360 nM; at K-Ras-wildtype it was ≥ 20000 nM.
Taken in the same sequence, the figures for `Cn1c(Oc2cc(O)cc3cccc(F)c23)nc2c(N3CC4CCC(C3)N4)nc(OCC34CCCN3CCC4)nc21` [Example 8, 4-({6-(3,8-diazabicyclo[3.2.1]octan-3-yl)-9-methyl-2-[(tetrahydro-1H-pyrrolizin-7a(5H)-yl)methoxy]-9H-purin-8-yl}oxy)-5-fluoronaphthalen-2-ol] were > 20000 nM and > 20000 nM.
Taken in the same sequence, the figures for `Cn1c(Oc2cc(O)cc3ccccc23)nc2c(N3CC4CCC(C3)N4)nc(OCC34CCCN3CCC4)nc21` [Example 9, 4-({6-(3,8-diazabicyclo[3.2.1]octan-3-yl)-9-methyl-2-[(tetrahydro-1H-pyrrolizin-7a(5H)-yl)methoxy]-9H-purin-8-yl}oxy)naphthalen-2-ol] were > 20000 nM and > 20000 nM.
Taken in the same sequence, the figures for `Oc1cc(Oc2nc3c(N4CC5CCC(C4)N5)nc(OCC45CCCN4CCC5)nc3[nH]2)c2ccccc2c1` [Example 10, 4-({6-(3,8-diazabicyclo[3.2.1]octan-3-yl)-2-[(tetrahydro-1H-pyrrolizin-7a(5H)-yl)methoxy]-9H-purin-8-yl}oxy)naphthalen-2-ol] were > 20000 nM and > 20000 nM.
For the compound `Oc1cc(Oc2nc3c(N4CC5CCC(C4)N5)nc(OCC45CCCN4CCC5)nc3[nH]2)c2c(F)cccc2c1` [Example 11, 4-({6-(3,8-diazabicyclo[3.2.1]octan-3-yl)-2-[(tetrahydro-1H-pyrrolizin-7a(5H)-yl)methoxy]-9H-purin-8-yl}oxy)-5-fluoronaphthalen-2-ol], the IC50 on K-Ras G12D and on K-Ras-wildtype was > 20000 nM in each case.
Take `C#Cc1c(F)ccc2cc(O)cc(Oc3nc4c(N5CC6COCC(C5)N6)nc(OC[C@@]56CCCN5C[C@H](F)C6)nc4s3)c12` [Example 12, 5-ethynyl-6-fluoro-4-{[5-{[(2R,7aS)-2-fluorotetrahydro-1H-pyrrolizin-7a(5H)-yl]methoxy}-7-(3-oxa-7,9-diazabicyclo[3.3.1]nonan-7-yl)[1,3]thiazolo[5,4-d]pyrimidin-2-yl]oxy}naphthalen-2-ol]: the IC50 amounted to 23.7 nM on K-Ras G12D and 15.8 nM on K-Ras-wildtype.
The corresponding values for `C#Cc1c(F)ccc2cc(O)cc(Oc3nc4c(N5CC6COCC(C5)N6)nc(OCC56CCCN5CCC6)nc4s3)c12` [Example 13, 5-ethynyl-6-fluoro-4-({7-(3-oxa-7,9-diazabicyclo[3.3.1]nonan-7-yl)-5-[(tetrahydro-1H-pyrrolizin-7a(5H)-yl)methoxy][1,3]thiazolo[5,4-d]pyrimidin-2-yl}oxy)naphthalen-2-ol] are 25.6 nM and 15.3 nM.
The corresponding values for `Oc1cc(Cc2nc3c(N4CC5CCC(C4)N5)nc(OCC45CCCN4CCC5)nc3s2)c2c(F)cccc2c1` [Example 14, 4-({7-(3,8-diazabicyclo[3.2.1]octan-3-yl)-5-[(tetrahydro-1H-pyrrolizin-7a(5H)-yl)methoxy][1,3]thiazolo[5,4-d]pyrimidin-2-yl}methyl)-5-fluoronaphthalen-2-ol] are 635 nM and > 20000 nM.
The corresponding values for `Oc1cc(Oc2nc3c(N4CC5CCC(C4)N5)nc(OCC45CCCN4CCC5)nc3s2)c2c(Cl)cccc2c1` [Example 15, Formic acid-5-Chlor-4-{[7-(3,8-diazabicyclo[3.2.1]octan-3-yl)-5-(tetrahydro-1H-pyrrolizin-7a(5H)-ylmethoxy)[1,3]thiazolo[5,4-d]pyrimidin-2-yl]oxy}-2-naphthol (2:1)] are 35.3 nM and 1070 nM.
Consider `C=Cc1c(F)ccc2cc(O)cc(Oc3nc4c(N5CC6CCC(C5)N6)nc(OC[C@@]56CCCN5C[C@H](F)C6)nc4s3)c12` [Example 17, 4-{[7-(3,8-diazabicyclo[3.2.1]octan-3-yl)-5-{[(2R,7aS)-2-fluorotetrahydro-1H-pyrrolizin-7a(5H)-yl]methoxy}[1,3]thiazolo[5,4-d]pyrimidin-2-yl]oxy}-5-ethenyl-6-fluoronaphthalen-2-ol], for which the IC50 at K-Ras G12D came to 13.4 nM; at K-Ras-wildtype, 425 nM.
Taken in the same sequence, the figures for `Cn1c(Oc2cc(O)cc3ccccc23)nc2nc(OCC34CCCN3CCC4)nc(N3CC4CCC(C3)N4)c21` [Example 18, 4-({6-(3,8-diazabicyclo[3.2.1]octan-3-yl)-7-methyl-2-[(tetrahydro-1H-pyrrolizin-7a(5H)-yl)methoxy]-7H-purin-8-yl}oxy)naphthalen-2-ol] were 15300 nM and > 20000 nM.
Taken in the same sequence, the figures for `C#Cc1c(F)ccc2cc(O)cc(Oc3nc4c(N5CC6COCC(C5)N6)nc(OC[C@@]56CCCN5C[C@H](F)C6)nc4s3)c12` [Example 19, 5-ethynyl-6-fluoro-4-{[5-{[(2R,7aS)-2-fluorotetrahydro-1H-pyrrolizin-7a(5H)-yl]methoxy}-7-(3-oxa-7,9-diazabicyclo[3.3.1]nonan-7-yl)[1,3]thiazolo[5,4-d]pyrimidin-2-yl]oxy}naphthalen-2-ol] were 14.3 nM and 10.7 nM.
For `C#Cc1c(F)ccc2cc(O)cc(Oc3nc4nc(OCC56CCCN5CCC6)nc(N5CC6CCC(C5)N6)c4n3C)c12` [Example 22, 4-({6-(3,8-diazabicyclo[3.2.1]octan-3-yl)-7-methyl-2-[(tetrahydro-1H-pyrrolizin-7a(5H)-yl)methoxy]-7H-purin-8-yl}oxy)-5-ethynyl-6-fluoronaphthalen-2-ol], the IC50 is 89.5 nM on K-Ras G12D and > 20000 nM at K-Ras-wildtype.
Taken in the same sequence, the figures for `C#Cc1c(Cl)ccc2cc(O)cc(Oc3nc4c(N5CC6CCC(C5)N6)nc(OC[C@@]56CCCN5C[C@H](F)C6)nc4s3)c12` [Example 23, 6-chloro-4-{[7-(3,8-diazabicyclo[3.2.1]octan-3-yl)-5-{[(2R,7aS)-2-fluorotetrahydro-1H-pyrrolizin-7a(5H)-yl]methoxy}[1,3]thiazolo[5,4-d]pyrimidin-2-yl]oxy}-5-ethynylnaphthalen-2-ol] were 4.9 nM and 95 nM.
In the case of `Oc1cc(Nc2nc3c(N4CC5CCC(C4)N5)nc(OC[C@@]45CCCN4C[C@H](F)C5)nc3s2)c2ccccc2c1` [Example 28, 4-{[7-(3,8-diazabicyclo[3.2.1]octan-3-yl)-5-{[(2R,7aS)-2-fluorotetrahydro-1H-pyrrolizin-7a(5H)-yl]methoxy}[1,3]thiazolo[5,4-d]pyrimidin-2-yl]amino}naphthalen-2-ol], the IC50 at K-Ras G12D is 1410 nM; at K-Ras-wildtype, > 20000 nM.
